{"source": "patent US7662842B2", "about": "“Thiazolidinone amides, thiazolidine carboxylic acid amides, and serine amides, including polyamine conjugates thereof, as selective anti-cancer agents” (Ohio State Univesity Research Foundation, priority 2003, dated 2010)", "key": {"SKMEL-188 melanoma cells [1]": {"test_system": "SKMEL-188 melanoma cells", "test": "Sulforhodamine B assay in melanoma cells, SKMEL-188", "format": "cell-based", "conditions": "SK-MEL-188, 48 h, SRB assay, 48 h incubation; melanoma cell line"}, "WM-164 cells": {"test_system": "WM-164 cells", "test": "Sulforhodamine B assay in melanoma cells, WM-164", "format": "cell-based", "conditions": "Homo sapiens, WM164, read-out: IC50 WM-164; SRB assay, 48 h incubation; melanoma cell line"}, "LNCaP cells": {"test_system": "LNCaP cells", "test": "DNA fragmentation by agarose gel electrophoresis", "format": "cell-based, human", "conditions": "treatment for 24 to […], 3-50 μM, FIGS. 4A-B", "procedure": "In FIG. 4B, the dose and exposure time are indicated for compound 5 as follows: lane 1, 100 bp DNA marker; lane 2, 5 μM for 24 h; lane 3, 5 μM for 48 h; lane 4, 5 μM for 72 h; lane 5, 5 μM for 96 h; lane 6, 3 μM for 96 h; lane 7, 8 μM for 48 h; and lane 8, 8 μM for 72 h."}, "SKMEL-188 cells": {"test_system": "SKMEL-188 cells", "test": "Lactate dehydrogenase release assay", "format": "cell-based", "conditions": "SKMEL-188, 48 hours, FIG. 11A", "procedure": "(§1) SKMEL-188 melanoma cells were incubated with Compound 4(R) at 60 μM for 48 hours. FIG. 11A is a graph showing the cytotoxicity as measured by LDH release from the cells following treatment. Data is presented as mean±SEM (n=8), *p<0.05, **p<0.005. FIG. 11B is a pair of graphs that show the DNA content, as measured by flow cytometry, of cells that were exposed to control (left) and Compound 4(R) (right).\nLactate Dehydrogenase Release Assay: SKMEL-188 cells were seeded at a density of 5000 cells per well in a 96-well flat-bottom microtiter plate. Media were changed after 12 hours and the testing compound was added at serial dilutions. Media were changed with fresh compound every 24 hours. […] Lactate dehydrogenase (LDH) in supernatants was measured using Cytotox 96 Non-Radioactive Cytotoxicity Assay (Promega, Madison, Wis.). […] At the end of incubation stop solution was added to each well and plate was read at 490 nm. Cytotoxicity of compounds was calculated using the following formula: percent cytotoxicity=experimental LDH release/maximum LDH release Experimental LDH release was calculated by subtraction of absorbance corresponding to media only from absorbance corresponding to control/compound treated cells. Maximum LDH release was calculated by subtraction of absorbance corresponding to media with added lysis solution from absorbance corresponding to cells lysed with lysis solution. […]"}, "SKMEL-188 melanoma cells [2]": {"test_system": "SKMEL-188 melanoma cells", "test": "DNA content analysis by flow cytometry", "format": "cell-based", "conditions": "SKMEL-188, 48 hours, 6 μM and 60 μM, FIG. 11B, Hydrochloride", "procedure": "as §1\nDNA Content Analysis: SKMEM-188 cells were seeded in 10 cm Petri dishes at a density of 10^6 cell per dish. At 12 hours, the medium was changed to 5% FBS with different concentrations of the testing compound. Cells were incubated for 48 hours, and media with compounds were changed every 24 hours. Cells were trypsinized, washed with PBS, and fixed in ice-cold 70% ethanol. After fixing, the ethanol was removed by centrifugation, and cells were incubated in phosphate-citrate buffer (0.2M Na2HPO4, 4 mM citric acid, pH=7.8) for 1 hour. […] Samples were shaken for 30 minutes, and analyzed with FACS Caliber cytometer (Becton Dickinson, San Diego, Calif.). Data was analyzed and graphs were prepared using Modfit 2.0 (Verity Sofware House, Topsham, Me.).\nTo examine more closely the cell death induced by the tested compounds, LDH release was measured by calorimetric assay and DNA content was analyzed by flow cytometry. […]"}, "effector capsase-3": {"test_system": "effector capsase-3", "test": "Activation of effector caspase-3", "format": "cell-based"}}}
{"smiles": "CCCCCCCCCCCCCCNC(=O)[C@@H]1CSC(c2ccccc2)N1.Cl", "note": "(mixture of isomers) [Compound 4, (2RS, 4R)-2-Phenylthiazolidine-4-carboxylic acid tetradecylamide Hydrochloride]", "values": [{"measurement": "IC50", "setting": "SKMEL-188 melanoma cells [1]", "value": 570, "unit": "nM"}, {"measurement": "IC50", "setting": "WM-164 cells", "value": 460, "unit": "nM"}, {"measurement": "DNA fragmentation (apoptosis) in LNCaP cells", "setting": "LNCaP cells", "value": "induce cell apoptosis"}, {"measurement": "LDH released to cellular environment", "setting": "SKMEL-188 cells", "value": "dramatic does-dependent increase of LDH released"}, {"measurement": "DNA content / mode of cell death", "setting": "SKMEL-188 melanoma cells [2]; listed as 4 (R enantiomer)", "value": "causes necrotic cell death"}, {"measurement": "DNA content / mode of cell death", "setting": "SKMEL-188 melanoma cells [2]; listed as 4R", "value": "disappearance of peaks corresponding to viable, proliferating cells"}, {"measurement": "Activation of effector caspase-3", "setting": "effector capsase-3", "value": "no increase in activity"}]}
